Data taken from patent US9012443B2 (Amgen Inc., priority 2011, dated 2015).

How the values were obtained:
Nav 1.7 [1] = target: T1, Nav 1.7 (Homo sapiens (Human), UniProt Q15858); test: Nav 1.7 in vitro PX assay (PatchXpress whole cell voltage clamp); format: cell-based; conditions: 293 cells, human Nav1.7, partially inactivated state; read-out: Nav1.7 PX IC50 IP
Summary of the method: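 HEK293 cells stably expressing human Nav1.7, whole-cell voltage clamp on PatchXpress, held at potential giving 20–50% inactivation; current elicited by 20 msec pulse to −10 mV.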

Nav 1.7 [2] = target: T1, Nav 1.7; test: Nav 1.7 IWQ in vitro assay (IonWorks Quattro population patch-clamp); format: cell-based; conditions: 293 cells stably transfected with Nav 1.7; second part of table; read-out: Nav1.7 IWQ IC50 IP
Summary of the method: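 HEK293 cells stably expressing Nav 1.7, recorded by automated population patch-clamp with a train of depolarizations producing increasing inactivation. Single compound concentration added during 3–8 min unclamped period, then same protocol repeated. Leak-corrected current at 26th pulse to −20 mV gave percent block (duplicate); IC50 fitted from concentration–block curves.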

T1 sequence (Q15858 whole entry): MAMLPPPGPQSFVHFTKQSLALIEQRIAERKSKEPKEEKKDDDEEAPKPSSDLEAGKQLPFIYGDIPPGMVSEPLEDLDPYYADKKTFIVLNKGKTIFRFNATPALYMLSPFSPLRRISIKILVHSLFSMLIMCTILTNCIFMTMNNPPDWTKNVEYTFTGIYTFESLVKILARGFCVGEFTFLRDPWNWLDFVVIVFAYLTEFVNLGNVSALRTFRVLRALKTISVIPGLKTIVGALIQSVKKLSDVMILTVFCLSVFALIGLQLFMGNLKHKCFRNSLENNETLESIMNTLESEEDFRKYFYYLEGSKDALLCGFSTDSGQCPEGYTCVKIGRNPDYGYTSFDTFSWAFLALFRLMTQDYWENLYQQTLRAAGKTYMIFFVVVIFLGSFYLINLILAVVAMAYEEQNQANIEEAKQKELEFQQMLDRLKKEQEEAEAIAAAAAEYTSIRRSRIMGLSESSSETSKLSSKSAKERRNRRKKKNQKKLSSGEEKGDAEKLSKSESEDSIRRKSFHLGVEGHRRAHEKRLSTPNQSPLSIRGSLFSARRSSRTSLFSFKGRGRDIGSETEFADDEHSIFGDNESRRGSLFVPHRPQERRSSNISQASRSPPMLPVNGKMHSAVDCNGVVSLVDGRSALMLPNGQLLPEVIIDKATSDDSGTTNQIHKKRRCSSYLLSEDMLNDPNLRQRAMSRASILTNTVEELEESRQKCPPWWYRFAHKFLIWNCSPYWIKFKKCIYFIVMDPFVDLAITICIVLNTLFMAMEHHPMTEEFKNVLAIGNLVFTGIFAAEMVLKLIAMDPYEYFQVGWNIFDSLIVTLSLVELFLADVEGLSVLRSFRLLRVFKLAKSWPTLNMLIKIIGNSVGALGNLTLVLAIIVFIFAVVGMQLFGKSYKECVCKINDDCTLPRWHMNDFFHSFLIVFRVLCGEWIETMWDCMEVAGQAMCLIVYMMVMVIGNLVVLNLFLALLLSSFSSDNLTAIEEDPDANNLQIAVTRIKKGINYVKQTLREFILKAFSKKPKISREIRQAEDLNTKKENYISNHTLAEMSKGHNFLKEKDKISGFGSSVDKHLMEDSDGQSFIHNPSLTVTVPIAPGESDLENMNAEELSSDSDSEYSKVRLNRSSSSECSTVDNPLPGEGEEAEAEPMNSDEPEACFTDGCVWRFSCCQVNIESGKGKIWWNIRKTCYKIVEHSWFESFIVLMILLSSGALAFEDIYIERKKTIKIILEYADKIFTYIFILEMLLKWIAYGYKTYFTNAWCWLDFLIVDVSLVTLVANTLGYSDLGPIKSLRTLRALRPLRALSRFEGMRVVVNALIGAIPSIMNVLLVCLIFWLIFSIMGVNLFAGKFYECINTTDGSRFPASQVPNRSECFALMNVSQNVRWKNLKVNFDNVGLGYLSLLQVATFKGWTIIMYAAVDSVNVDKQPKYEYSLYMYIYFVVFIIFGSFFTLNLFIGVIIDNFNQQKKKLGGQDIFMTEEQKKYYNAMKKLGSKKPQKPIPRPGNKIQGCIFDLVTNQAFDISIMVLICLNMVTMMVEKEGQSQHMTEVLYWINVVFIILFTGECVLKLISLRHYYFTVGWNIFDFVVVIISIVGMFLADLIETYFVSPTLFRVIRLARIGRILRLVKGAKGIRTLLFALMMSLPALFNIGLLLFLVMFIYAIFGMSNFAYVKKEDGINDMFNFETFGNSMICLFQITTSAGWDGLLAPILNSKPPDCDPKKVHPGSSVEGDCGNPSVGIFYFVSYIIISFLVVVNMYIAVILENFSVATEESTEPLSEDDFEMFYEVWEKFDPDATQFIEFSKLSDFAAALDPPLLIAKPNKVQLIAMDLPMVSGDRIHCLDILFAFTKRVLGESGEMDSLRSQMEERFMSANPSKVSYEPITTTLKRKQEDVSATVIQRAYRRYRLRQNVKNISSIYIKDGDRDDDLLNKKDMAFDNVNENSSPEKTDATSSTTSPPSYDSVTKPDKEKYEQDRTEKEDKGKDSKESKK

Row | IC50 (Nav 1.7 [1]) | IC50 (Nav 1.7 [2]) | Structure (SMILES)
1 | 4450 nM | 1180 nM | O=S(=O)(Nc1ncns1)c1ccc2c(NCc3ccccc3)cccc2c1 [Example 99, 5-(benzylamino)-N-(1,2,4-thiadiazol-5-yl)naphthalene-2-sulfonamide]
2 | 1460 nM | 290 nM | CN(Cc1ccccc1)c1cccc2cc(S(=O)(=O)Nc3ncns3)ccc12 [Example 100, 5-(benzyl(methyl)amino)-N-(1,2,4-thiadiazol-5-yl)naphthalene-2-sulfonamide]
3 | 7840 nM | 2480 nM | N#CCn1c(-c2cccc3cc(S(=O)(=O)Nc4ccncn4)ccc23)cc2cc(F)ccc21 [Example 105]
4 | 3840 nM | 1600 nM | Cn1c(-c2cccc3cc(S(=O)(=O)Nc4ccncn4)ccc23)cc2cc(F)ccc21 [Example 106]
5 | 3320 nM | 330 nM | COc1cc(C(F)(F)F)ccc1-c1cccc2cc(S(=O)(=O)Nc3ncc(F)s3)ccc12 [Example 107]
6 | 210 nM | 170 nM | O=S(=O)(Nc1ncc(F)s1)c1ccc2c(-c3ccc(C(F)(F)F)cc3C3=CCNCC3)cccc2c1 [Example 108]
7 | 140 nM | 40 nM | Cn1cncc1-c1cc(C(F)(F)F)ccc1-c1cccc2cc(S(=O)(=O)Nc3ncc(F)s3)ccc12 [Example 110]
8 | 332 nM | 60 nM | Cn1ccnc1-c1cc(C(F)(F)F)ccc1-c1cccc2cc(S(=O)(=O)Nc3ncc(F)s3)ccc12 [Example 111]
9 | 459 nM | 100 nM | O=S(=O)(Nc1ncc(F)s1)c1ccc2c(-c3ccc(C(F)(F)F)cc3-n3ccnc3)cccc2c1 [Example 112]
10 | 118 nM | 80 nM | O=S(=O)(Nc1ncc(F)s1)c1ccc2c(-c3ccc(C(F)(F)F)cc3C3CCNCC3)cccc2c1 [Example 113]
11 | 11300 nM | 820 nM | O=S(=O)(Nc1ccncn1)c1ccc2c(-c3cc4cc(F)ccc4[nH]3)cccc2c1 [Example 114]
12 | 692 nM | 180 nM | COc1cc(-c2ccccc2)ccc1-c1cccc2cc(S(=O)(=O)Nc3ccncn3)ccc12 [Example 115]
13 | 623 nM | 70 nM | CN1CCC(c2cc(C(F)(F)F)ccc2-c2cccc3cc(S(=O)(=O)Nc4ccncn4)ccc23)CC1 [Example 116]
14 | 2880 nM | 180 nM | CS(=O)(=O)c1cc(C(F)(F)F)ccc1-c1cccc2cc(S(=O)(=O)Nc3ccncn3)ccc12 [Example 117]
15 | 652 nM | 30 nM | O=S(=O)(Nc1ccncn1)c1ccc2c(-c3ccc(C(F)(F)F)cc3C3(F)CNC3)cccc2c1 [Example 118]
16 | 179 nM | 20 nM | O=S(=O)(Nc1ccncn1)c1ccc2c(-c3ccc(C(F)(F)F)cc3C3=CCNC3)cccc2c1 [Example 119]
17 | 125 nM | 10 nM | O=S(=O)(Nc1ccncn1)c1ccc2c(-c3ccc(C(F)(F)F)cc3C3CCNCC3)cccc2c1 [Example 120]
18 | 492 nM | 40 nM | CN1CCC=C(c2cc(C(F)(F)F)ccc2-c2cccc3cc(S(=O)(=O)Nc4ccncn4)ccc23)C1 [Example 122]
19 | 516 nM | 50 nM | Cn1cncc1-c1cc(C(F)(F)F)ccc1-c1cccc2cc(S(=O)(=O)Nc3ccncn3)ccc12 [Example 123]
20 | 502 nM | 60 nM | Cn1ccnc1-c1cc(C(F)(F)F)ccc1-c1cccc2cc(S(=O)(=O)Nc3ccncn3)ccc12 [Example 124]

Row | IC50 (Nav 1.7 [1]) | IC50 (Nav 1.7 [2]) | Structure (SMILES)
21 | 631 nM | 40 nM | COc1cc(C2CC2)ccc1-c1cccc2cc(S(=O)(=O)Nc3ccncn3)ccc12 [Example 125]
22 | 2660 nM | 130 nM | O=S(=O)(Nc1nccs1)c1ccc2c(-c3ccc(F)cc3-c3ccncc3)nccc2c1 [Example 126, 1-(4-FLUORO-2-(PYRIDIN-4-YL)PHENYL)-N-(THIAZOL-2-YL)ISOQUINOLINE-6-SULFONAMIDE]
23 | 4510 nM | 500 nM | O=S(=O)(Nc1ccncn1)c1ccc2c(OCc3ncoc3-c3ccccc3)nccc2c1 [Example 130, 1-((5-PHENYLOXAZOL-4-YL)METHOXY)-N-(PYRIMIDIN-4-YL)ISOQUINOLINE-6-SULFONAMIDE]
24 | 4190 nM | 810 nM | C[C@@H](COc1ccc(Cl)cc1)Oc1nccc2cc(S(=O)(=O)Nc3ccncn3)ccc12 [Example 131, (S)-1-((1-(4-CHLOROPHENOXY)PROPAN-2-YL)OXY)-N-(PYRIMIDIN-4-YL)ISOQUINOLINE-6-SULFONAMIDE]
25 | 7900 nM | 870 nM | O=S(=O)(Nc1ccncn1)c1ccc2c(OCCCc3ccc(Cl)cc3)nccc2c1 [Example 132, 1-(3-(4-CHLOROPHENYL)PROPOXY)-N-(PYRIMIDIN-4-YL)ISOQUINOLINE-6-SULFONAMIDE]
26 | 34100 nM | 1830 nM | O=S(=O)(Nc1ccncn1)c1ccc2c(OCc3nccn3Cc3ccc(Cl)cc3)nccc2c1 [Example 133, 1-((1-(4-CHLOROBENZYL)-1H-IMIDAZOL-2-YL)METHOXY)-N-(PYRIMIDIN-4-YL)ISOQUINOLINE-6-SULFONAMIDE]
27 | > 30000 nM | 3590 nM | O=S(=O)(Nc1ccncn1)c1ccc2c(OCc3cccc4[nH]ncc34)nccc2c1 [Example 136, 1-((1H-INDAZOL-4-YL)METHOXY)-N-(PYRIMIDIN-4-YL)ISOQUINOLINE-6-SULFONAMIDE]
28 | > 30000 nM | 3910 nM | N#Cc1cccc(COc2nccc3cc(S(=O)(=O)Nc4ccncn4)ccc23)c1 [Example 137, 1-((3-CYANOBENZYL)OXY)-N-(PYRIMIDIN-4-YL)ISOQUINOLINE-6-SULFONAMIDE]
29 | 415 nM | 10 nM | COc1ccc(C(F)(F)F)cc1-c1nccc2cc(S(=O)(=O)Nc3ccncn3)ccc12 [Example 139, 1-(2-METHOXY-5-(TRIFLUOROMETHYL)PHENYL)-N-(PYRIMIDIN-4-YL)ISOQUINOLINE-6-SULFONAMIDE]
30 | 10700 nM | 90 nM | COc1ccccc1-c1nccc2cc(S(=O)(=O)Nc3ccncn3)ccc12 [Example 140, 1-(2-METHOXYPHENYL)-N-(PYRIMIDIN-4-YL)ISOQUINOLINE-6-SULFONAMIDE]
31 | 29600 nM | 2300 nM | O=S(=O)(Nc1ccncn1)c1ccc2c(-c3ccc(C(F)(F)F)cc3)nccc2c1 [Example 141, N-(PYRIMIDIN-4-YL)-1-(4-(TRIFLUOROMETHYL)PHENYL)ISOQUINOLINE-6-SULFONAMIDE]
32 | 1790 nM | 60 nM | COc1cc(F)c(F)cc1-c1nccc2cc(S(=O)(=O)Nc3ccncn3)ccc12 [Example 142, 1-(4,5-DIFLUORO-2-METHOXYPHENYL)-N-(PYRIMIDIN-4-YL)ISOQUINOLINE-6-SULFONAMIDE]
33 | 16400 nM | 920 nM | COc1ccc(-c2nccc3cc(S(=O)(=O)Nc4ccncn4)ccc23)c(OC)n1 [Example 145, 1-(2,6-DIMETHOXYPYRIDIN-3-YL)-N-(PYRIMIDIN-4-YL)ISOQUINOLINE-6-SULFONAMIDE]
34 | 1370 nM | 30 nM | COc1ccc(Cl)cc1-c1nccc2cc(S(=O)(=O)Nc3ccncn3)ccc12 [Example 146, 1-(5-CHLORO-2-METHOXYPHENYL)-N-(PYRIMIDIN-4-YL)ISOQUINOLINE-6-SULFONAMIDE]
35 | 5820 nM | 130 nM | COc1ccc(OC)c(-c2nccc3cc(S(=O)(=O)Nc4ccncn4)ccc23)c1 [Example 147, 1-(2,5-DIMETHOXYPHENYL)-N-(PYRIMIDIN-4-YL)ISOQUINOLINE-6-SULFONAMIDE]
36 | 2410 nM | 80 nM | COc1ccc(F)cc1-c1nccc2cc(S(=O)(=O)Nc3ccncn3)ccc12 [Example 148, 1-(5-FLUORO-2-METHOXYPHENYL)-N-(PYRIMIDIN-4-YL)ISOQUINOLINE-6-SULFONAMIDE]
37 | 2400 nM | 60 nM | COc1ccc(C)cc1-c1nccc2cc(S(=O)(=O)Nc3ccncn3)ccc12 [Example 149]
38 | 7190 nM | 120 nM | COc1ccc(C#N)cc1-c1nccc2cc(S(=O)(=O)Nc3ccncn3)ccc12 [Example 150, 1-(5-CYANO-2-METHOXYPHENYL)-N-(PYRIMIDIN-4-YL)ISOQUINOLINE-6-SULFONAMIDE]
39 | 1020 nM | 30 nM | COc1ccc(OC(F)(F)F)cc1-c1nccc2cc(S(=O)(=O)Nc3ccncn3)ccc12 [Example 151, 1-(2-METHOXY-5-(TRIFLUOROMETHOXY)PHENYL)-N-(PYRIMIDIN-4-YL)ISOQUINOLINE-6-SULFONAMIDE]

Row | Structure (SMILES) | IC50 (Nav 1.7 [1]) | IC50 (Nav 1.7 [2])
40 | O=C(c1ccccc1)N1CCCC1c1cccc2cc(S(=O)(=O)Nc3nccs3)ccc12 (stereo not shown) [Example 101] | 11800 nM | 1160 nM
41 | O=S(=O)(Nc1nccs1)c1ccc2c(C3CCCN3C3CCOCC3)cccc2c1 (stereo not shown) [Example 102, 5-(1-(TETRAHYDRO-2H-PYRAN-4-YL)PYRROLIDIN-2-YL)-N-(THIAZOL-2-YL)NAPHTHALENE-2-SULFONAMIDE 2,2,2-TRIFLUOROACETATE] | 1540 nM | 110 nM
42 | O=S(=O)(Nc1nccs1)c1ccc2c([C@@H]3CCCN3C3CCOCC3)cccc2c1 [Example 103, (S)-5-(1-(TETRAHYDRO-2H-PYRAN-4-YL)PYRROLIDIN-2-YL)-N-(THIAZOL-2-YL)NAPHTHALENE-2-SULFONAMIDE COMPOUND WITH DIETHYLAMINE (1:1)] | 14500 nM | 1580 nM
43 | O=S(=O)(Nc1nccs1)c1ccc2c([C@H]3CCCN3C3CCOCC3)cccc2c1 [Example 104, (R)-5-(1-(TETRAHYDRO-2H-PYRAN-4-YL)PYRROLIDIN-2-YL)-N-(THIAZOL-2-YL)NAPHTHALENE-2-SULFONAMIDE COMPOUND WITH DIETHYLAMINE (1:1)] | 1990 nM | 80 nM
44 | O=S(=O)(Nc1ccncn1)c1ccc2c(-c3ccc(C(F)(F)F)cc3-n3ccnc3)cccc2c1 [Example 121] | 864 nM | 30 nM
